Measured values: ChEMBL document CHEMBL1201862, “PubChem BioAssay data set” (2004)
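1) Cells in 96-well plates. 2) Compound, 48 h, 5 concentrations. 3) Linear interpolation between surrounding doses. 4) Unreached endpoint = highest concentration. Here, GI50 denotes the concentration required for 50% inhibition of growth.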 The source made the active and inactive calls. No stated cut-off is given here; in the data, active = GI50 up to about 1.1 µM and inactive = higher.

Assays:
Assay in all cases: NCI-60 cell line screen, 48 h
KM-20L2 = system: KM-20L2
786-0 = system: 786-0
A549 = system: A549
ACHN = system: ACHN
CCRF-CEM = system: CCRF-CEM
COLO 205 = system: COLO 205
DLD-1 = system: DLD-1
DMS-114 = system: DMS-114
DMS-273 = system: DMS-273
EKVX = system: EKVX
HCC 2998 = system: HCC 2998
HCT-116 = system: HCT-116
HCT-15 = system: HCT-15
HL-60 = system: HL-60
HOP-62 = system: HOP-62
HT-29 = system: HT-29
IGROV-1 = system: IGROV-1
K562 = system: K562
KM12 = system: KM12
LOX IMVI = system: LOX IMVI
LXFL 529 = system: LXFL 529
M14 = system: M14
M19-MEL = system: M19-MEL
MOLT-4 = system: MOLT-4
Malme-3M = system: Malme-3M
NCI-H226 = system: NCI-H226
NCI-H23 = system: NCI-H23
NCI-H460 = system: NCI-H460
NCI-H522 = system: NCI-H522
OVCAR-3 = system: OVCAR-3
OVCAR-8 = system: OVCAR-8
RPMI-8226 = system: RPMI-8226
RXF 393 = system: RXF 393
SF-268 = system: SF-268
SF-295 = system: SF-295
SF-539 = system: SF-539
SK-MEL-28 = system: SK-MEL-28
SK-OV-3 = system: SK-OV-3
SN12C = system: SN12C
SNB-19 = system: SNB-19
SNB-75 = system: SNB-75
SNB-78 = system: SNB-78
SR = system: SR
SW-620 = system: SW-620
TK-10 = system: TK-10
U-251 = system: U-251
UACC-257 = system: UACC-257
UACC-62 = system: UACC-62
UO-31 = system: UO-31
A498 = system: A498
CAKI-1 = system: CAKI-1
HOP-92 = system: HOP-92
OVCAR-4 = system: OVCAR-4
OVCAR-5 = system: OVCAR-5
SK-MEL-2 = system: SK-MEL-2
SK-MEL-5 = system: SK-MEL-5
BT-549 = system: BT-549
DU-145 = system: DU-145
Hs-578T = system: Hs-578T
MCF7 = system: MCF7
MDA-MB-231 = system: MDA-MB-231
MDA-MB-435 = system: MDA-MB-435
MDA-N = system: MDA-N
NCI/ADR-RES = system: NCI/ADR-RES
PC-3 = system: PC-3
T47D = system: T47D

Compound: CC(C)SC1CC2C(CC1(C)O)C2(C)C (stereo unspecified)
- GI50 (KM-20L2): 4.3 µM (inactive)

Compound: COCOc1ccc(Cn2c(=O)n(C)c(=O)c3c2ncn3C)cc1[N+](=O)[O-]
- GI50 (786-0): > 100 µM (inactive)
- GI50 (A549): > 100 µM (inactive)
- GI50 (ACHN): > 100 µM (inactive)
- GI50 (CCRF-CEM): > 100 µM (inactive)
- GI50 (COLO 205): > 100 µM (inactive)
- GI50 (DLD-1): > 100 µM (inactive)
- GI50 (DMS-114): 44.6 µM (inactive)
- GI50 (DMS-273): > 100 µM (inactive)
- GI50 (EKVX): 54.7 µM (inactive)
- GI50 (HCC 2998): > 100 µM (inactive)
- GI50 (HCT-116): > 100 µM (inactive)
- GI50 (HCT-15): > 100 µM
- GI50 (HL-60): > 100 µM (inactive)
- GI50 (HOP-62): > 10 µM (inactive)
- GI50 (HT-29): 10.2 µM (inactive)
- GI50 (IGROV-1): > 100 µM (inactive)
- GI50 (K562): > 100 µM (inactive)
- GI50 (KM-20L2): > 100 µM (inactive)
- GI50 (KM12): > 100 µM (inactive)
- GI50 (LOX IMVI): > 100 µM (inactive)
- GI50 (LXFL 529): 79.8 µM (inactive)
- GI50 (M14): > 100 µM (inactive)
- GI50 (M19-MEL): > 100 µM (inactive)
- GI50 (MOLT-4): 91.8 µM (inactive)
- GI50 (Malme-3M): > 100 µM (inactive)
- GI50 (NCI-H226): 46.3 µM (inactive)
- GI50 (NCI-H23): 80.2 µM (inactive)
- GI50 (NCI-H460): > 100 µM (inactive)
- GI50 (NCI-H522): > 100 µM (inactive)
- GI50 (OVCAR-3): > 100 µM (inactive)
- GI50 (OVCAR-8): > 100 µM (inactive)
- GI50 (RPMI-8226): 66.2 µM (inactive)
- GI50 (RXF 393): > 100 µM (inactive)
- GI50 (SF-268): > 100 µM (inactive)
- GI50 (SF-295): 25.7 µM (inactive)
- GI50 (SF-539): > 100 µM (inactive)
- GI50 (SK-MEL-28): > 100 µM (inactive)
- GI50 (SK-OV-3): 49.3 µM (inactive)
- GI50 (SN12C): > 100 µM (inactive)
- GI50 (SNB-19): > 100 µM (inactive)
- GI50 (SNB-75): 59.6 µM (inactive)
- GI50 (SNB-78): > 100 µM (inactive)
- GI50 (SR): > 100 µM (inactive)
- GI50 (SW-620): > 100 µM (inactive)
- GI50 (TK-10): > 100 µM (inactive)
- GI50 (U-251): > 100 µM (inactive)
- GI50 (UACC-257): 57.5 µM (inactive)
- GI50 (UACC-62): > 100 µM (inactive)
- GI50 (UO-31): > 100 µM (inactive)

Compound: COc1cccc([C@@]2(O)c3c(ccc(O)c3OC)[C@H]2OC)c1OC
- GI50 (786-0): 14.4 µM (inactive)
- GI50 (A498): 58.1 µM (inactive)
- GI50 (A549): 37 µM (inactive)
- GI50 (ACHN): 31.3 µM (inactive)
- GI50 (CAKI-1): 22.6 µM (inactive)
- GI50 (CCRF-CEM): 45.4 µM (inactive)
- GI50 (DLD-1): 35.7 µM (inactive)
- GI50 (EKVX): 47.2 µM (inactive)
- GI50 (HCC 2998): 25.7 µM (inactive)
- GI50 (HL-60): 19.3 µM (inactive)
- GI50 (HOP-62): 60.5 µM (inactive)
- GI50 (HOP-92): 62.7 µM (inactive)
- GI50 (HT-29): 28.1 µM (inactive)
- GI50 (IGROV-1): 40.6 µM (inactive)
- GI50 (K562): 44.5 µM (inactive)
- GI50 (KM-20L2): 38.9 µM (inactive)
- GI50 (KM12): 24.9 µM (inactive)
- GI50 (LXFL 529): 19.6 µM (inactive)
- GI50 (M14): 30.5 µM (inactive)
- GI50 (MOLT-4): 45.5 µM (inactive)
- GI50 (Malme-3M): 46.2 µM (inactive)
- GI50 (NCI-H226): 43.5 µM (inactive)
- GI50 (NCI-H23): 43.9 µM (inactive)
- GI50 (NCI-H460): 47.4 µM (inactive)
- GI50 (NCI-H522): 16.3 µM (inactive)
- GI50 (OVCAR-3): 23.9 µM (inactive)
- GI50 (OVCAR-4): 39.7 µM (inactive)
- GI50 (OVCAR-5): > 100 µM (inactive)
- GI50 (OVCAR-8): 38.5 µM (inactive)
- GI50 (RPMI-8226): 39.1 µM (inactive)
- GI50 (SF-268): 33.8 µM (inactive)
- GI50 (SF-295): 57.8 µM (inactive)
- GI50 (SK-MEL-28): 38.1 µM (inactive)
- GI50 (SK-MEL-2): 37.8 µM (inactive)
- GI50 (SK-MEL-5): 37.9 µM (inactive)
- GI50 (SK-OV-3): 31.8 µM (inactive)
- GI50 (SN12C): 62.1 µM (inactive)
- GI50 (SNB-19): 74 µM (inactive)
- GI50 (SNB-75): 47.6 µM (inactive)
- GI50 (SNB-78): 49.7 µM (inactive)
- GI50 (SR): 38.5 µM (inactive)
- GI50 (SW-620): 28.6 µM (inactive)
- GI50 (TK-10): 31.1 µM (inactive)
- GI50 (U-251): 51.4 µM (inactive)
- GI50 (UACC-257): 98.2 µM (inactive)
- GI50 (UACC-62): > 10 µM (inactive)
- GI50 (UO-31): 36.4 µM (inactive)

Compound: Cc1cc2nc3c(C#N)c(C)c(CCCl)c(Cl)n3c2cc1C
- GI50 (786-0): 2 µM (inactive)
- GI50 (A498): 2.92 µM (inactive)
- GI50 (A549): 7.19 µM (inactive)
- GI50 (ACHN): 5.3 µM (inactive)
- GI50 (BT-549): 2.49 µM (inactive)
- GI50 (CAKI-1): 2.88 µM (inactive)
- GI50 (CCRF-CEM): 2.34 µM (inactive)
- GI50 (COLO 205): 3.69 µM (inactive)
- GI50 (DU-145): 3.84 µM (inactive)
- GI50 (EKVX): 10.5 µM (inactive)
- GI50 (HCC 2998): 2.97 µM (inactive)
- GI50 (HCT-116): 1.57 µM (inactive)
- GI50 (HCT-15): 1.87 µM
- GI50 (HL-60): 2.55 µM (inactive)
- GI50 (HOP-62): 2.44 µM (inactive)
- GI50 (HOP-92): 2.04 µM (inactive)
- GI50 (HT-29): 2.46 µM (inactive)
- GI50 (Hs-578T): 3.23 µM (inactive)
- GI50 (IGROV-1): 2.09 µM (inactive)
- GI50 (K562): 2.39 µM (inactive)
- GI50 (KM12): 6.1 µM (inactive)
- GI50 (LOX IMVI): 1.46 µM (inactive)
- GI50 (M14): 2.27 µM (inactive)
- GI50 (MCF7): 2.9 µM (inactive)
- GI50 (MDA-MB-231): 2 µM (inactive)
- GI50 (MDA-MB-435): 2.07 µM (inactive)
- GI50 (MDA-N): 2.61 µM (inactive)
- GI50 (MOLT-4): 2.08 µM (inactive)
- GI50 (Malme-3M): 2.96 µM (inactive)
- GI50 (NCI-H226): 0.166 µM (active)
- GI50 (NCI-H23): 2.12 µM (inactive)
- GI50 (NCI-H460): 5.77 µM (inactive)
- GI50 (NCI-H522): 12 µM (inactive)
- GI50 (NCI/ADR-RES): 3.18 µM (inactive)
- GI50 (OVCAR-3): 1.75 µM (inactive)
- GI50 (OVCAR-4): 6.76 µM (inactive)
- GI50 (OVCAR-5): 2.18 µM (inactive)
- GI50 (OVCAR-8): 2.63 µM (inactive)
- GI50 (PC-3): 5.6 µM (inactive)
- GI50 (RPMI-8226): 2.58 µM (inactive)
- GI50 (RXF 393): 1.81 µM (inactive)
- GI50 (SF-268): 2.36 µM (inactive)
- GI50 (SF-295): 3.49 µM (inactive)
- GI50 (SF-539): 2.51 µM (inactive)
- GI50 (SK-MEL-28): 4.52 µM (inactive)
- GI50 (SK-MEL-2): 1.87 µM (inactive)
- GI50 (SK-MEL-5): 4.39 µM (inactive)
- GI50 (SK-OV-3): > 28.6 µM (inactive)
- GI50 (SN12C): 1.92 µM (inactive)
- GI50 (SNB-19): 10.8 µM (inactive)
- GI50 (SNB-75): 1.87 µM (inactive)
- GI50 (SR): 2.29 µM (inactive)
- GI50 (SW-620): 2.34 µM (inactive)
- GI50 (T47D): 3.13 µM (inactive)
- GI50 (TK-10): 2.18 µM (inactive)
- GI50 (U-251): > 43.5 µM (inactive)
- GI50 (UACC-257): 2.23 µM (inactive)
- GI50 (UACC-62): 1.93 µM (inactive)
- GI50 (UO-31): 2.02 µM (inactive)
